The text below walks through data of US10316049B2, “Tank-binding kinase inhibitor compounds” (Gilead Sciences, Inc., priority 2015, dated 2019).

In one experiment the target is T1, TBK1 (Homo sapiens, UniProt Q9UHD2).
T1 construct: TBK1 and IKKε were expressed and purified as full length recombinant proteins; made in house
T1 sequence (Q9UHD2 1-729): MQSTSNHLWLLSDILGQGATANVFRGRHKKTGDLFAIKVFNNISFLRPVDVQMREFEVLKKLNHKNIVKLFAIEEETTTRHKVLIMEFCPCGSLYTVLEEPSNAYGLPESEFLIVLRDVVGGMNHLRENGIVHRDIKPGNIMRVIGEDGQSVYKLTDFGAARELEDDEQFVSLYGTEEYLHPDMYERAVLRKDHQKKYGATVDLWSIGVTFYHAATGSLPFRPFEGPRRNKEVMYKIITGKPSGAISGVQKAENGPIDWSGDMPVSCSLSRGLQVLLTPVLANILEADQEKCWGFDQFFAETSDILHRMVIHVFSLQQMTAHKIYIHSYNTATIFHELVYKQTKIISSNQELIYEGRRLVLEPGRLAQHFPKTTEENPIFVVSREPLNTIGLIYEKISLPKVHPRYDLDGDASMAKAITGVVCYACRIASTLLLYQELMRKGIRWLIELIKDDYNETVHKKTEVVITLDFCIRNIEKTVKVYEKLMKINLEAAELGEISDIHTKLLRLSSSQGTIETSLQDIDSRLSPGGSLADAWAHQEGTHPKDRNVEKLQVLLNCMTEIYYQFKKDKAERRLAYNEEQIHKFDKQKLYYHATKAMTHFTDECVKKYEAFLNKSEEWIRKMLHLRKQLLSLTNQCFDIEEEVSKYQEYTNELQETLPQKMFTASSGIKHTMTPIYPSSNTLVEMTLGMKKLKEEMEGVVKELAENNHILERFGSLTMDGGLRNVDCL
Kind of experiment: TR-FRET enzymatic activity assay, TBK1. Further: full length recombinant TBK1 at 2.5 nM. It counts as biochemical. As for the experimental part:
(§1) Biological Assay for TBK1 and IKKε:
Enzymatic activity of IKKε and TBK1 was measured using a homogeneous time resolved fluorescence resonance energy transfer (TR-FRET) assay that monitors enzyme dependent phosphorylation of a biotinylated serine/threonine peptide substrate. An increase in the amount of phosphorylated peptide results in an increase in TR-FRET signal. TBK1 and IKKε were expressed and purified as full length recombinant proteins. Detection reagents for the assay were purchased from Cisbio. […] After an assay reaction time of 240 minutes at 25° C., reactions were terminated with EDTA.
Amount of phosphorylated peptide was determined by the addition of 125 nM streptavidin XL665 and europium cryptate labeled anti-phospho monoclonal antibody and the resulting TR-FRET signal was recorded on an Envision plate reader (Ex: 340 nm; Em: 615/665 nm; 100 μs delay and 200 μs read window). Data was normalized based on a positive (1 μM Staurosporine) and negative (DMSO) controls and IC50 values calculated from the fit of the dose-response curves to a four-parameter equation. All IC50 values represent geometric mean values of a minimum of four determinations. These assays generally produced results within 3-fold of the reported mean.
Background: In TR-FRET formats the signal depends on donor and acceptor labels being close together.

Another experiment has as its target T2, IKKε (Homo sapiens, UniProt Q14164).
T2 construct: TBK1 and IKKε were expressed and purified as full length recombinant proteins; made in house
T2 sequence (Q14164 1-716): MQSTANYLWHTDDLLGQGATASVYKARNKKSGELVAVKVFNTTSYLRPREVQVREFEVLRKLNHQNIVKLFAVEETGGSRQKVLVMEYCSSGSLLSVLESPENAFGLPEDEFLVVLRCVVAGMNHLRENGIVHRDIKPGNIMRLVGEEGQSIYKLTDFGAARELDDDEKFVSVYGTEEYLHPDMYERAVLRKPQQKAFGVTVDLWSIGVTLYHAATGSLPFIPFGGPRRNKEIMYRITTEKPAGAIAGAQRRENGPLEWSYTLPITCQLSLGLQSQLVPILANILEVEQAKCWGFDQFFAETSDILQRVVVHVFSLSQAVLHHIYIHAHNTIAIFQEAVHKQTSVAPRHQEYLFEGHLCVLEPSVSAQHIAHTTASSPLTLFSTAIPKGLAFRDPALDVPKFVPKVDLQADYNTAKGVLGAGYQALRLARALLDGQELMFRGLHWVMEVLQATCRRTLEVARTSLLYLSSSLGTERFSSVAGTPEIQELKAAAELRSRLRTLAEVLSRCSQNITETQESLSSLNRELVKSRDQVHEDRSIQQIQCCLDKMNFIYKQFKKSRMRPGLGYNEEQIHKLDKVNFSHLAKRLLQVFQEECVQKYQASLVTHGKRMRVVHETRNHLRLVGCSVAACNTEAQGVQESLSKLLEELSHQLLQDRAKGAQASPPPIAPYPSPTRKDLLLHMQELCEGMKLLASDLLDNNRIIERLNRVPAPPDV
Kind of experiment: TR-FRET enzymatic activity assay, IKKε. Further: full length recombinant IKKε at 0.3 nM. In kind it is biochemical. Particulars: read-out: IKKϵ IC50. As to the method: as §1
Enzymatic activity of IKKε and TBK1 was measured using a homogeneous time resolved fluorescence resonance energy transfer (TR-FRET) assay that monitors enzyme dependent phosphorylation of a biotinylated serine/threonine peptide substrate. […] TBK1 and IKKε were expressed and purified as full length recombinant proteins. Detection reagents for the assay were purchased from Cisbio. […] After an assay reaction time of 240 minutes at 25° C., reactions were terminated with EDTA.
Amount of phosphorylated peptide was determined by the addition of 125 nM streptavidin XL665 and europium cryptate labeled anti-phospho monoclonal antibody and the resulting TR-FRET signal was recorded on an Envision plate reader (Ex: 340 nm; Em: 615/665 nm; 100 μs delay and 200 μs read window). Data was normalized based on a positive (1 μM Staurosporine) and negative (DMSO) controls and IC50 values calculated from the fit of the dose-response curves to a four-parameter equation. All IC50 values represent geometric mean values of a minimum of four determinations.

For orientation: IC50 means the point on the concentration scale where inhibition reaches its midpoint. `N#Cc1cc(-c2cc(NC(=O)C3CC3)ncn2)ccc1O` [Example 109, N-(6-(3-cyano-4-hydroxyphenyl)pyrimidin-4-yl)cyclopropanecarboxamide]: the IC50 against TBK1 was 826 nM; at IKKε, greater than 1000 nM. Consider `Cn1cc([C@@H]2C[C@H]2C(=O)Nc2cc(-c3ccc(O[C@H]4CCN(C(=O)[C@@H](O)CO)C[C@H]4F)c(C#N)c3)ncn2)cn1` [Example 146, (1,2-Trans)-N-(6-(3-cyano-4-(((3R,4S)-1-((S)-2,3-dihydroxypropanoyl)-3-fluoropiperidin-4-yl)oxy)phenyl)pyrimidin-4-yl)-2-(1-methyl-1H-pyrazol-4-yl)cyclopropane-1-carboxamide], for which the IC50 against TBK1 was 16.1 nM; on IKKε it was 30.8 nM.

With `N#Cc1cc(-c2ccnc(NC(=O)[C@H]3C[C@@H]3[N+](=O)[O-])c2)ccc1OC1CCOCC1` (relative stereo) [Example 86, (1,2 trans)-N-(4-(3-cyano-4-((tetrahydro-2H-pyran-4-yl)oxy)phenyl)pyridin-2-yl)-2-nitrocyclopropane-1-carboxamide], the figures for the IC50 at TBK1 and on IKKε were 529 nM and 314 nM, respectively. The like results for `CO[C@@H]1CCN(c2ccc(-c3ccnc(NC(=O)C4CC4)c3)cc2C#N)C1` [Example 97, (R)—N-(4-(3-cyano-4-(3-methoxypyrrolidin-1-yl)phenyl)pyridin-2-yl)cyclopropanecarboxamide] were, in that order, 270 nM and 477 nM. Taken in the same sequence, the figures for `N#Cc1cc(-c2ccnc(NC(=O)[C@@H]3C[C@H]3C(=O)N3CC(O)C3)c2)ccc1OC1CCOCC1` (relative stereo) [Example 45, (1,2-trans)-N-(4-(3-cyano-4-((tetrahydro-2H-pyran-4-yl)oxy)phenyl)pyridin-2-yl)-2-(3-hydroxyazetidine-1-carbonyl)cyclopropane-1-carboxamide] were 444 nM and 427 nM. As to `COC(=O)[C@@H]1C[C@H]1C(=O)Nc1cc(-c2ccc(O[C@H]3CCN(C(=O)CO)C[C@H]3F)c(C#N)c2)ccn1` (relative stereo) [Example 83, Methyl (1,2-trans)-2-((4-(3-cyano-4-(((3R,4S)-3-fluoro-1-(2-hydroxyacetyl)piperidin-4-yl)oxy)phenyl)pyridin-2-yl)carbamoyl)cyclopropane-1-carboxylate], the IC50 at TBK1 was determined as 47.9 nM; on IKKε, 53.3 nM. Turning to `N#Cc1cc(-c2cc(NC(=O)C3CC3)ncn2)ccc1O[C@@H]1CCN(C(=O)CO)C[C@H]1F` [Example 111, N-(6-(3-cyano-4-(((3R,4R)-3-fluoro-1-(2-hydroxyacetyl)piperidin-4-yl)oxy)phenyl)pyrimidin-4-yl)cyclopropanecarboxamide], the values for the IC50 on TBK1 and on IKKε were 105 nM and 254 nM, respectively.

With `N#Cc1cc(-c2ccnc(NC(=O)[C@H]3C[C@@H]3c3cccnc3)c2)ccc1O[C@H]1CCN(C(=O)CO)C[C@H]1F` [Example 136, (1S,2S)—N-(4-(3-cyano-4-(((3R,4S)-3-fluoro-1-(2-hydroxyacetyl)piperidin-4-yl)oxy)phenyl)pyridin-2-yl)-2-(pyridin-3-yl)cyclopropane-1-carboxamide], the IC50 at TBK1 amounted to 3.5 nM; on IKKε, 10.4 nM.

Turning to `N#Cc1cc(-c2cc(NC(=O)C3CC3)ncn2)ccc1O[C@H]1CCNCC1(F)F` [Example 25, (S)—N-(6-(3-cyano-4-((3,3-difluoropiperidin-4-yl)oxy)phenyl)pyrimidin-4-yl)cyclopropanecarboxamide], the figures for the IC50 against TBK1 and at IKKε were 93.3 nM and 297 nM, respectively.

As to `N#CCC(=O)N1CC[C@H](Oc2ccc(-c3ccnc(NC(=O)C4CC4)c3)cc2C#N)C(F)(F)C1` [Example 13, (S)—N-(4-(3-cyano-4-((1-(2-cyanoacetyl)-3,3-difluoropiperidin-4-yl)oxy)phenyl)pyridin-2-yl)cyclopropanecarboxamide], the IC50 at TBK1 was found to be 12.4 nM; on IKKε, 44 nM. With `COc1ccc([C@@H]2C[C@H]2C(=O)Nc2cc(-c3ccc(O[C@H]4CCN(C(=O)CO)CC4(F)F)c(C#N)c3)ncn2)cn1` [Example 113, (1R,2R)—N-(6-(3-cyano-4-(((S)-3,3-difluoro-1-(2-hydroxyacetyl)piperidin-4-yl)oxy)phenyl)pyrimidin-4-yl)-2-(6-methoxypyridin-3-yl)cyclopropane-1-carboxamide], the IC50 on TBK1 is 8.1 nM; on IKKε it was greater than 1000 nM. In the case of `N#Cc1cc(-c2ccnc(NC(=O)[C@@H]3C[C@@H]3F)c2)ccc1O[C@H]1CCN(C(=O)CO)C[C@H]1F` [Example 61, (1S,2S)—N-(4-(3-cyano-4-(((3R,4S)-3-fluoro-1-(2-hydroxyacetyl)piperidin-4-yl)oxy)phenyl)pyridin-2-yl)-2-fluorocyclopropanecarboxamide], the results for the IC50 on TBK1 and on IKKε were 16.4 nM and 32.2 nM, respectively. In the case of `N#Cc1cc(-c2ccnc(NC(=O)[C@@H]3C[C@H]3c3cccnc3)c2)ccc1O[C@H]1CCN(C(=O)[C@@H](O)CO)CC1(F)F` [Example 139, (1R,2R)—N-(4-(3-cyano-4-(((S)-1-((S)-2,3-dihydroxypropanoyl)-3,3-difluoropiperidin-4-yl)oxy)phenyl)pyridin-2-yl)-2-(pyridin-3-yl)cyclopropane-1-carboxamide], the IC50 against TBK1 was 15.8 nM; on IKKε, 16.1 nM.

Consider `Cn1cc([C@@H]2C[C@H]2C(=O)Nc2cc(-c3ccc(O[C@H]4CCN(C(=O)CO)CC4(F)F)c(C#N)c3)ncn2)cn1` [Example 137, (1R,2R)—N-(6-(3-cyano-4-(((S)-3,3-difluoro-1-(2-hydroxyacetyl)piperidin-4-yl)oxy)phenyl)pyrimidin-4-yl)-2-(1-methyl-1H-pyrazol-4-yl)cyclopropane-1-carboxamide], for which, at TBK1, the IC50 stood at 21.4 nM. Still for that read-out and setting: to `Cn1cc([C@H]2C[C@@H]2C(=O)Nc2cc(-c3ccc(O[C@H]4CCN(C(=O)CO)CC4(F)F)c(C#N)c3)ncn2)cn1` [Example 138, (1S,2S)—N-(6-(3-cyano-4-(((S)-3,3-difluoro-1-(2-hydroxyacetyl)piperidin-4-yl)oxy)phenyl)pyrimidin-4-yl)-2-(1-methyl-1H-pyrazol-4-yl)cyclopropane-1-carboxamide] belongs 5.9 nM.

Molecule `Cn1cc([C@@H]2C[C@H]2C(=O)Nc2cc(-c3ccc(O[C@H]4CCN(C(=O)CO)CC4(F)F)c(C#N)c3)ncn2)cn1` [Example 128, (1,2-Trans)-N-(6-(3-cyano-4-(((S)-3,3-difluoro-1-(2-hydroxyacetyl)piperidin-4-yl)oxy)phenyl)pyrimidin-4-yl)-2-(1-methyl-1H-pyrazol-4-yl)cyclopropane-1-carboxamide] showed an IC50 at TBK1 of 7.2 nM.
